Read-outs that look alike come from different tables or passages of the source.
Legend:
diabetic Zucker rats = assay: Dose escalation study in fatty Zucker rats, oral glucose tolerance test; format: in vivo, rat; conditions: 2 g/kg glucose
Method: N=30 male Zucker rats (fa/fa), mean age 11 weeks (5-12 weeks), mean body weight 350 g (150-400 g), were purchased from Charles River (Sulzfeld, Germany).
After delivery they were kept for >12 weeks until nearly all fatty Zucker rats had the characteristics of manifest diabetes mellitus. A group of N=8 animals were recruited for testing three escalating doses of glutaminyl pyrrolidine vs. placebo (saline).
Placebo (1 ml saline, 0.154 mol/l) or escalating doses of glutaminyl pyrrolidine (5, 15 and 50 mg/kg b.w.) were administered to groups of N=8 fatty Zucker rats. 375 mg of glutaminyl pyrrolidine were dissolved in 1000 μl DMSO (E. Merck, Darmstadt; Germany [Dimethyl sulfoxide p.a.]). 10 ml saline were added and 1 ml aliquots, each containing 34.09 mg of glutaminyl pyrrolidine, were stored at −20° C. For preparation of the test substance, dose dependent aliquots were diluted in saline.
After overnight fasting, placebo or test substance were administered to the fatty Zucker rats via feeding tube orally (15 G, 75 mm; Fine Science Tools, Heidelberg, Germany) at −10 min An oral glucose tolerance test (OGTT) with 2 g/kg b.w. glucose (40% solution, B. Braun Melsungen, Melsungen, Germany) was administered at ±0 min via a second feeding tube. Venous blood samples from the tail veins were collected at −30 min, −15 min, ±0 min and at 5, 10, 15, 20, 30, 40, 60, 90 and 120 min into 20 μl glass capillaries, which were placed in standard tubes filled with 1 ml solution for blood glucose measurement.
Glucose levels were measured using the glucose oxidase procedure (Super G Glucose analyzer; Dr. Müller Gerätebau, Freital, Germany).
Statistical evaluations and graphics were performed with PRISM® 3.02 (GraphPad Software, Inc.). All parameters were analysed in a descriptive manner including mean and SD.
After delivery they were kept for >12 weeks until nearly all fatty Zucker rats had the characteristics of manifest diabetes mellitus. […]
Glucose levels were measured using the glucose oxidase procedure (Super G Glucose analyzer; Dr. Möller Gerätebau, Freital, Germany).

plasma DPIV activity = molecular target: T1, plasma DPIV activity (Rattus norvegicus, UniProt P14740); assay: DPIV inhibiting activity after intravasal and oral administration to Wistar rats; format: in vivo; conditions: rat
T1 construct: from tissue; host or cells: plasma of Wistar rats
T1 sequence (P14740 38-767 limits assumed): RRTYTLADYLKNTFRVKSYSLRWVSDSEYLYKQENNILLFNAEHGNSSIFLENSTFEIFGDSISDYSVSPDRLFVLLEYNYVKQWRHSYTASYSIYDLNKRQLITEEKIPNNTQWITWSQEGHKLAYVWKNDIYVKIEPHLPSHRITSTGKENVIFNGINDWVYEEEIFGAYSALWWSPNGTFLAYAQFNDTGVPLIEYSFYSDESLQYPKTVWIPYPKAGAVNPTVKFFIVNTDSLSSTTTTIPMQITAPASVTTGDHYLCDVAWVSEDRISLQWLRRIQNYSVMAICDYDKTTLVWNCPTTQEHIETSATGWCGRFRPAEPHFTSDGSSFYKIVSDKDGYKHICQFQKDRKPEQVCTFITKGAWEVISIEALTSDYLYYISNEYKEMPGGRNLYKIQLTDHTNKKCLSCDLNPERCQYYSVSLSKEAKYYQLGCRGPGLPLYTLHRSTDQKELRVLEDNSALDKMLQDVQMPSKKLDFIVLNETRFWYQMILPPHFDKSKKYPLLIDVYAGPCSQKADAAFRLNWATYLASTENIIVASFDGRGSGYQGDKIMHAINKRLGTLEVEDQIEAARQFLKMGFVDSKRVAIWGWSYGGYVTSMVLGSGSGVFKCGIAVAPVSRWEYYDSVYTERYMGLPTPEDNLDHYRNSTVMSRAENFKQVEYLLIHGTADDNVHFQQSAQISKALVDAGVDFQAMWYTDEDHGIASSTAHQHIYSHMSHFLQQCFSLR
Method: Male Wistar rats (Shoe: Wist(Sho)) with a body weight ranging between 250 and 350 g were purchased from Tierzucht Schönwalde (Schönwalde, Germany).
Animals were single-caged under conventional conditions with controlled temperature (22±2° C.) on a 12/12 hours light/dark cycle (light on at 06:00 AM). Standard pelleted chow (ssniff® Soest, Germany) and tap water acidified with HCl were allowed ad libitum.
After ≧one week of adaptation at the housing conditions, catheters were implanted into the carotid artery of Wistar rats under general anaesthesia (i.p. injection of 0.25 ml/kg b.w. Rompun® [2%], BayerVital, Germany and 0.5 ml/kg b.w. Ketamin 10, Atarost GmbH & Co., Twistringen, Germany). The animals were allowed to recover for one week. The catheters were flushed with heparin-saline (100 IU/ml) three times per week. In case of catheter dysfunction, a second catheter was inserted into the contra-lateral carotid artery of the respective rat. After one week of recovery from surgery, this animal was reintegrated into the study. In case of dysfunction of the second catheter, the animal was withdrawn from the study. A new animal was recruited and the experiments were continued in the planned sequence, beginning at least 7 days after catheter implantation.
After overnight fasting, 100 μl samples of heparinised arterial blood were collected at −30, −5, and 0 min. […] In the case of oral administration, an additional volume of 1 ml saline was injected into the arterial catheter. In the case of infra-arterial administration, the catheter was immediately flushed with 30 μl saline and an additional 1 ml of saline was given orally via the feeding tube.
All blood samples were collected into ice cooled Eppendorf tubes (Eppendorf-Netheler-Hinz, Hamburg, Germany) filled with 10 μl 1M sodium citrate buffer (pH 3.0) for plasma DPIV activity measurement. Eppendorf tubes were centrifuged immediately (12000 rpm for 2 min, Hettich Zentrifuge EBA 12, Tuttlingen; Germany): The plasma fractions were stored on ice until analysis or were frozen at −20° C. until analysis. All plasma samples were labelled with the following data:
The assay mixture for determination of plasma DPIV activity consisted of 80 μl reagent and 20 μl plasma sample. […] The DPIV activity was expressed in mU/ml.
All parameters were analysed in a descriptive manner including mean and SD.

[1] = tested on: Dipeptidyl Peptidase I (DP I, Cathepsin C); assay: Cross reacting enzymes - dipeptidyl peptidase I; format: biochemical; conditions: concentration range 1*10^−5 M-1*10^−7M; MES buffer pH5.6
Method: DP I or cathepsin C is a lysosomal cysteine protease which cleaves off dipeptides from the N-terminus of their substrates (Gutman, H. R. & Fruton, J. S., 1948, J. Biol: Chem., 174, 851-858). It is classified as a cysteine protease. The enzyme used was purchased from Qiagen (Qiagen GmbH, Hilden, Germany). In order to get a fully active enzyme, the enzyme was diluted 1000 fold in MES buffer pH5.6 (40 mM MES, 4 mM DTT, 4 mM KCl, 2 mM EDTA, 0.015% Brij) and pre-incubated for 30 min at 30° C.
50 μl glutaminyl pyrrolidine or glutaminyl thiazolidine in a concentration range of 1*10^−5 M-1*10^−7M were admixed with 110 μl buffer-enzyme-mixture. The assay mixture was pre-incubated at 30° C. for 15 min. After pre-incubation, 100 μl histidylseryl-[…]-nitroaniline (2*10^−5M) was added and measurement of yellow color development due to β-nitroaniline release was performed at 30° C. and […] for 10 min., using a plate reader (HTS7000 plus, Applied Biosystems, Weiterstadt, Germany).
The IC50-values were calculated using Graphit 4.0.15 (Erithacus Software, Ltd., UK).

inhibition at 100 mg/kg (plasma DPIV activity; iv, intra-vasal (intra-arterial) route, read-out: in vivo DPIV-inhibition at tmax, i.v.): 80%
inhibition at 100 mg/kg (plasma DPIV activity; oral, read-out: in vivo DPIV-inhibition at tmax, p.o.): 67%
inhibition of DP I enzyme activity [1]: No inhibition
SMILES: NC(=O)CCC(N)C(=O)N1CCCC1 (stereo not drawn) [Gln-Pyrr, glutaminyl pyrrolidine]
glucose tolerance (OGTT) (diabetic Zucker rats; 5 mg/kg b.w. oral): limited improvement
elevated blood glucose levels and glucose tolerance (OGTT) (diabetic Zucker rats; 15 mg/kg oral): Significant lowering
elevated blood glucose levels and glucose tolerance (OGTT) (diabetic Zucker rats; 50 mg/kg b.w. oral): Significant lowering

Source: patent US20070207946A1, “Dipeptidyl peptidase IV inhibitors and their uses for lowering blood pressure levels” (priority 2001, published 2007)
